Measured values as given in patent publication US20240382474A1, “ENPP1 MODULATORS AND USES THEREOF” (Vir Biotechnology, Inc., priority 2021, published 2024).
Entries after “also recorded” stand apart in the source; their conditions may differ.

Assays:
[1] = biological target: T1, human ENPP1 enzymatic domain (Homo sapiens, UniProt P22413); test: ENPP1 Enzymatic Inhibition Assay (2′3′-cGAMP substrate, AMP-Glo luminescence); assay type: biochemical; conditions: 1 nM ENPP1, 20 uM 2′3′-cGAMP, 30 minutes at 37° C.
T1 construct: recombinant protein containing the human ENPP1 enzymatic domain; purchased Viva Biotech
T1 sequence (P22413 191-591 limits assumed): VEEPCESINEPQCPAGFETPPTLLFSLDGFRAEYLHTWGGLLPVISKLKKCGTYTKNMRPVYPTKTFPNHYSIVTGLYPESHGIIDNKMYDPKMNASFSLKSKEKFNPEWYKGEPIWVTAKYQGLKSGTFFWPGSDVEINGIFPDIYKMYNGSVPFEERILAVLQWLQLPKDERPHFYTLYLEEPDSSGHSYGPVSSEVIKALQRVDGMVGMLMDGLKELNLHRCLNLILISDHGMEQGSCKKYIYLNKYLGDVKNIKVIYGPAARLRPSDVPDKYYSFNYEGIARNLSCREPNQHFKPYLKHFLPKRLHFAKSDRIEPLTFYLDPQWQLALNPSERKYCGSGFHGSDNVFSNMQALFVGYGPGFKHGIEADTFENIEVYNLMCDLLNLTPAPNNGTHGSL
Procedure: The inhibition of ENPP1's phosphodiesterase activity were tested in a purified enzymatic assay using 2′3′-cyclic GAMP as a substrate which allowed for the release of cleaved AMP to be monitored using a luminescent assay.
Putative inhibitors were diluted in assay buffer (50 mM Tris pH 8.0, 250 mM NaCl, 0.5 mM CaCl2), 1 uM ZnCl2, 1% DMSO) and pre-incubated for 15 minutes at 37° C. with recombinant protein containing the human ENPP1 enzymatic domain (Viva Biotech). The enzymatic reaction was initiated upon addition of the 2′3′-cGAMP substrate. The final reaction concentrations were 1 nM ENPP1 and 20 uM 2′3′-cGAMP substrate in a 25 uL volume. Inhibitor concentrations ranged from 10 uM to 0.056 nM. The reaction was incubated for 30 minutes at 37° C.
After reacting for 30 minutes, the amount of AMP generated from the cleavage of 2′3′-cGAMP was determined using the Promega AMP-Glo method according to the manufacturer's protocol. First, AMP-Glo reagent 1 was added and incubated with the reaction mix for 1 hour at room temperature. Second, AMP Detection solution was added and the mixture was incubated for an additional hour. The luminescence of the mixture was read on a Perkin Elmer Ensight plate reader.
The maximum and minimum levels of ENPP1 activity were established using no inhibitor and no enzyme controls, respectively. The activity observed using ENPP1 inhibitors was quantified as the percent of activity relative to these controls. IC50 values were calculated using CDD Vault by fitting a sigmoidal variable slope nonlinear regression model to the data.

[2] = test system: MC38 tumor xenografts; test: Treatment of mice bearing MC38 tumor xenografts (Study 1); assay type: in vivo, C57BL/6 mice
Procedure: Ten week old female C57BL/6 mice were implanted subcutaneously in the flank with 5×10^5 MC38 cells. Tumors were measured every 2-3 days using a caliper. Body weight was measured every 2-3 days. Dosing initiated on Day (when the average tumor volume reached 50 mm^3. Five animals were assigned to each treatment group. Animals were dosed orally by gavage with Compound 26 for 10 days and were monitored through Day 32 or until tumors reached 2.000 mm^3 in volume.
FIG. 1 provides a graph of mean tumor volumes for this set of mice bearing MC38 tumor xenografts. Mice were divided into three groups: (1) control group, who received no treatment (black circles, solid line); (2) mice who received Compound 26 dosed at 4 mg/kg PO QD (grey triangles, dashed lines); and (3) mice who received Compound 26 dosed at 60 mg/kg PO QD (grey squares, dotted line). In each treatment group, compound 26 was administered once a day for 10 consecutive days, at which time, treatment was ceased.

[3] = test system: MC38 tumor xenografts; test: Treatment of mice bearing MC38 tumor xenografts (Study 2): tumor volume, survival, body weight; assay type: in vivo, C57BL/6 mice
Procedure: (§1) In this study, 6-8 week old female C57BL/6 mice were implanted subcutaneously in the flank with 5×10^5 MC38 cells. Tumors were measured every 2-3 days using a caliper. Body weight was measured every 2-3 days. Dosing initiated on Day (when the average tumor volume reached 50 mm^3 with 15 animals assigned to each treatment group. Animals were dosed orally by gavage with Compound 26 (4 mg/kg PO QD) or Compound 56 (either 1 mg/kg PO QD or 12 mg/kg PO QD).
(§2) A subset of 5 animals from each group were collected on day 10 after the initiation of dosing. Tumors were harvested and lysed via sonication. Supernatants were collected, adjusted for total protein, and assayed using a Luminex cytokine and chemokine panel (Invitrogen) and an IFN-β ELISA. The remaining 10 animals in each group were dosed and monitored through Day 27 or until tumors reached 2 cm in size.
FIG. 2A provides a graph of mean tumor volumes for this set of mice bearing MC38 tumor xenografts. Mice were divided into four groups: (1) control group, who received no treatment (black circles, solid line); (2) mice who received Compound 26 dosed at 4 mg/kg PO QD (grey squares, dashed line); (3) mice who received Compound 56 dosed at 12 mg/kg PO QD (grey triangles, dotted line); and (4) mice who received Compound 56 dosed at 1 mg/kg PO QD (empty circles, dotted dashed line).

[4] = test system: MC38 tumor xenografts; test: Treatment of mice bearing MC38 tumor xenografts (Study 3); assay type: in vivo, C57BL/6 mice; conditions: for survival: day to which some mice survived (Kaplan-Meier, FIG. 5B): all untreated mice deceased by day 21
Procedure: as §1, with “when” for “on Day (when”, “7” for “15”, “once daily through Day 27” for “by gavage with Compound 26 (4 mg/kg PO QD)”, “until tumors reached 2 cm in size.” for “Compound 56 (either 1 mg/kg PO QD or 12 mg/kg PO QD).”
FIGS. 5A-5B provide data for a fourth set of mice bearing MC38 tumor xenografts. FIG. 5A provides a graph of median tumor volumes for this set of mice. Mice were divided into three groups: (1) control group, who received no treatment (circles); (2) mice who received Compound 26 dosed at 4 mg/kg PO QD (squares); and (3) mice who received Compound 56 dosed at 12 mg/kg PO QD (triangles). […] For example, at day 20, tumor volumes for the untreated mice were between 2000 and 3000 mm^3, while for treated mice had tumor volumes between 1000 and 2000 mm^3.

[5] = test system: MC38 tumors; test: Intratumoral cytokine levels at day 10 in MC38 tumors (Study 2; Luminex cytokine and chemokine panel, IFN-β ELISA); assay type: in vivo, C57BL/6 mice; conditions: 12 mg/kg QD
Procedure: as §1, §2
Intratumoral concentrations for each of these inflammatory cytokines are provided in picogram of cytokine per gram of tumor tissue. FIGS. 4B-F each provide data for each of the following: (1) untreated control group (circles); (2) mice treated with 4 mg/kg QD Compound 26 (triangles); (3) mice treated with 12 mg/kg QD […]; and (4) mice treated with […].

Row | Structure (SMILES) | IC50 [1] [µM] | mean tumor volume compared to the control group (FIG. 1) ([2]; 4 mg/kg PO QD for 10 days) | mean tumor volume compared to the control group (FIG. 1) ([2]; 60 mg/kg PO QD for 10 days) | mean tumor volume compared to the untreated group (FIG. 2A) ([3]; 4 mg/kg PO QD) | survival: day to which some mice survived (Kaplan-Meier, FIG. 3A) ([3]; 4 mg/kg PO QD, all untreated mice deceased by day 22) [days] | median tumor volumes compared to the untreated group (FIG. 5A) ([4]; 4 mg/kg PO QD) | survival: day to which some mice survived (Kaplan-Meier, FIG. 5B) ([4]; 4 mg/kg PO QD) [days] | mean tumor volume compared to the untreated group (FIG. 2A) ([3]; 1 mg/kg PO QD) | survival: day to which at least one mouse survived (Kaplan-Meier, FIG. 3A) ([3]; 1 mg/kg PO QD, all untreated mice deceased by day 22) [days] | mean tumor volume compared to the untreated group (FIG. 2A) ([3]; 12 mg/kg PO QD) | survival: day to which at least one mouse survived (Kaplan-Meier, FIG. 3A) ([3]; 12 mg/kg PO QD, all untreated mice deceased by day 22) [days] | median intratumoral concentration of eotaxin (FIG. 4F) [5] | median intratumoral concentration of interferon beta (IFN beta) (FIG. 4B) [5] | median intratumoral concentration of interferon γ-induced protein 10 kDa (IP-10) (FIG. 4C) [5] | median intratumoral concentration of macrophage inflammatory protein-1-beta (MIP-1beta) (FIG. 4D) [5] | median intratumoral concentration of monocyte-chemotactic protein 3 (MCP-3) (FIG. 4E) [5] | median tumor volumes compared to the untreated group (FIG. 5A) ([4]; 12 mg/kg PO QD) | survival: day to which some mice survived (Kaplan-Meier, FIG. 5B) ([4]; 12 mg/kg PO QD) [days]
1 | COc1ccc2c(Oc3ccc([S@@](=N)(=O)NC[C@@H](C)O)cc3)ccnc2c1 [Compound 26, (S)-N-((R)-2-hydroxypropyl)-4-((7-methoxyquinolin-4-yl)oxy)benzenesulfonimidamide] | < 0.01 | lower | lower | smaller | 24 | significantly lower | 24 |  |  |  |  |  |  |  |  |  |  | 
2 | COc1ccc2c(Nc3ccc([S@@](=N)(=O)NC[C@@H](C)O)cc3)ccnc2c1 [Compound 56, (S)-N-((R)-2-hydroxypropyl)-4-((7-methoxyquinolin-4-yl)amino)benzenesulfonimidamide] | < 0.01 |  |  |  |  |  |  | smaller | > 27 | smaller; also recorded: greatest reduction in tumor volume | > 27 | ~15000 pg eotaxin/g of tumor | > 400 pg IFNbeta/g of tumor | 3000-4000 pg IP-10/g of tumor | ~9000 pg MIP-1 beta/g of tumor | 20000-30000 pg MCP-3/g of tumor | significantly lower | ≥ 27
3 | COc1ccc2c(Nc3ccc([S@@](=N)(=O)NC[C@@H](C)OC(C)=O)cc3)ccnc2c1 [Compound 69, (R)-1-(((S)-4-((7-methoxyquinolin-4-yl)amino)phenyl)sulfonoamidimidamido)propan-2-yl acetate] | < 0.01 |  |  |  |  |  |  |  |  |  |  |  |  |  |  |  |  | 
